# Laboratory results: patent publication US20220015371A1, “Compositions and Methods for Reducing Pesticide-Induced Plant Damage and Improving Plant Yield” (priority 2018, published 2022)
# Columns and labels:
# [1] = system: glyphosate-tolerant Palmer Amaranth; test: Palmer Amaranth shoot and root weight, greenhouse conditions; format: in vivo, Amaranthus palmeri; conditions: two weeks after spraying
# Excerpt: To test the effects of the inventive plant treatment product on weed survival in herbicide-tolerant Palmer Amaranth (Amaranthus palmeri) plants, the plant treatment product (Composition C+herbicide) or herbicide component (alone) were applied to weeds, in greenhouse conditions. […] The measurements of dry shoot mass and dry root mass were taken two weeks after spraying.
# [2] = system: rice plants; test: Example 5: rice plants stressed by foliar cyhalofop, field trial; format: in vivo; conditions: cyhalofop 1500 ml/ha, three days after application (FIG. 12A)
# Procedure: (§1) To test the effect of foliar application of an inventive fermentation culture lysate composition on rice plants stressed by foliar application of the chemical herbicide cyhalofop, field trial(s) were conducted. Control fields (FIG. 11, A; FIG. 12A) were treated with herbicide formulation comprising cyhalofop (foliar application at 1500 ml/ha). Test fields (FIG. 11, B; FIG. 12B) were treated with a combination of the herbicide formulation comprising cyhalofop (foliar application at 1500 ml/ha) and fermentation culture lysate Composition B (foliar application at 500 ml/ha).
# [3] = system: rice seedlings; test: Example 2: rice seedlings stressed by post-emergence halosulfuron, field trial; format: in vivo; conditions: halosulfuron post-emergence 1800 ml/ha, Composition E seed treatment 150 ml/100 kg seed where applied (FIGS. 7A, 7B)
# Procedure: To test the effect of seed application of an inventive fermentation culture lysate composition on rice seedlings stressed by post-emergence application of the chemical herbicide halosulfuron, various field trial(s) were conducted. Control fields (FIGS. 6A, 7A) were treated with herbicide formulation comprising halosulfuron (post-emergence at 1800 ml/ha). Test fields (FIGS. 6B, 7B) included seedling treated with the herbicide formulation comprising halosulfuron (post-emergence at 1800 ml/ha) from seeds treated with fermentation culture lysate Composition E (seed treatment at 150 ml/100 kg seed) during planting.
# [4] = system: rice of the variety Presidio; test: Rice crop injury in herbicide application program, field trial; conditions: visually rated 8 May, 0 = no injury, 100 = complete plant death
# Excerpt: (§2) To further evaluate the performance of certain embodiments of the present disclosure, bacterial fermentation product of the present disclosure was applied in a common herbicide application program to test herbicide injury tolerance, weed control, grain yield and milling quality in rice. Experiments were established in a field of Crowley fine sandy loam soil (59% sand, […], 12% clay, 0.7% organic matter and pH 5.3). The field was cropped to rice for every third year for many years and was naturally infested with many weeds. Plots consisted of six 18-ft rows, spaced 7.5-in. between rows. The experiment was conducted as a randomized completed block design with four replications. The trial consisted of six treatments (see Table 12, below).
# (§3) Rice of the variety Presidio was drill seeded at 70 lb/acre on 5 Apr. Seeds for treatments 2, 4, 5 and 6 were treated with Composition E at 2.3 oz product/CWT prior to planting. Compositions A and B were applied at 7 oz product/acre on 1 May (postemergence), 2 Jun (panicle differentiation, PD) and 19 Jun (boot), using a CO2 pressurized, hand-held sprayer equipped with a boom of three TeeJet 8002VS nozzles spaced 19-in. apart that traveled at 3 mph and delivered at 29 gal/acre at 40 psi. […]
# [5] = system: broadleaf signalgrass; test: Weed control in rice field trial: broadleaf signalgrass; format: in vivo; conditions: visually rated 8 May
# Excerpt: as §2, §3
# [6] = system: yellow nutsedge; test: Weed control in rice field trial: yellow nutsedge; format: in vivo; conditions: visually rated 8 May
# Excerpt: as §2, §3
# [7] = system: carpet weed; test: Weed control in rice field trial: carpet weed; format: in vivo; conditions: visually rated 8 May
# Excerpt: as §2, §3
# [8] = system: rice plants; test: Example 6: rice plants stressed by foliar profoxydim, field trial; format: in vivo; conditions: profoxydim 750 ml/ha, three days after application (FIG. 14A)
# Procedure: To test the effect of foliar application of inventive fermentation culture lysate composition(s) on rice plants stressed by foliar application of the chemical herbicide profoxydim, field trial(s) were conducted. Control fields (FIG. 13, A; FIG. 14A) were treated with herbicide formulation comprising profoxydim (foliar application at 750 ml/ha). Test fields were treated with either (FIG. 13, B; FIG. 14B) a combination of (i) herbicide formulation comprising profoxydim (foliar application at 750 ml/ha) and (ii) fermentation culture lysate Composition B (foliar application at 500 ml/ha) or (FIG. 13, C; FIG. 14C) a combination of (i) herbicide formulation comprising profoxydim (foliar application at 750 ml/ha), (ii) fermentation culture lysate Composition B (foliar application at 500 ml/ha), and (iii) fermentation culture lysate Composition F (foliar application at 500 ml/ha).
# [9] = system: rice plants; test: Example 3: rice plants stressed by foliar propanil, field trial; format: in vivo; conditions: propanil 4000 ml/ha, three days after application (FIG. 9A)
# Procedure: as §1, with “propanil,” for “cyhalofop,”, “8,” for “11,”, “9A)” for “12A)”, “propanil” for “cyhalofop”, “4000” for “1500”, “9B)” for “12B)”
# [10] = glyphosate 1.27 kg/ha, Composition C 1 liter/ha
structure (smiles),measurement,setting,value
"O=C(O)CNCP(=O)(O)O [Herbicide, glyphosate]",Palmer Amaranth root dry weight per plant,[1]; [10],0.768
same,Palmer Amaranth root fresh weight per plant,[1]; [10],4.70
same,Palmer Amaranth shoot dry weight per plant,[1]; [10],5.31
same,Palmer Amaranth shoot fresh weight per plant,[1]; [10],15.0
same,"Palmer Amaranth root dry weight, change vs Untreated Control",[1],−40.9%
same,"Palmer Amaranth root fresh weight, change vs Untreated Control",[1],−51.3%
same,"Palmer Amaranth shoot dry weight, change vs Untreated Control",[1],−7.01%
same,"Palmer Amaranth shoot fresh weight, change vs Untreated Control",[1],−20.6%
C[C@@H](Oc1ccc(Oc2ccc(C#N)cc2F)cc1)C(=O)O [cyhalofop],phytotoxicity symptoms,[2],showed phytotoxicity symptoms
COc1cc(OC)nc(NC(=O)NS(=O)(=O)c2c(C(=O)O)c(Cl)nn2C)n1 [halosulfuron],bleaching of rice seedlings,[3],caused bleaching
"CC1(C)CON(Cc2ccccc2Cl)C1=O [clomazone PRE, clomazone]",Crop injury (%),[4],5.0 d^y %
same,Weed Control (%) Broadleaf signalgrass,[5],90 b %
same,Weed Control (%) Yellow nutsedge,[6],0 b %
same,Weed Control (%) Carpet weed,[7],0 c %
CCCC(=NOCC(C)Oc1ccc(Cl)cc1)C1=C(O)CC(C2CCCSC2)CC1=O (stereo not shown) [profoxydim],phytotoxicity symptoms,[8],showed phytotoxicity symptoms
CCC(=O)Nc1ccc(Cl)c(Cl)c1 [propanil],phytotoxicity symptoms,[9],showed phytotoxicity symptoms
